{"source": "paper PMC7074166", "about": "“Screening for Small Molecule Modulators of Trypanosoma brucei Hsp70 Chaperone Activity Based upon Alcyonarian Coral-Derived Natural Products” (Marine Drugs, 2020)", "key": {"[1]": {"test_system": "TbHsp70.4 / Tbj2", "assay": "Tbj2-stimulated ATPase activity assay, TbHsp70.4", "format": "biochemical, Trypanosoma brucei", "details": "TbHsp70.4, 150 μM, Figure 5B", "method": "(§1) The determination of the ATPase activity of the Hsp70 proteins was performed using the high throughput colorimetric ATPase assay kit (Innova Biosciences, Cambridge, UK). This method enables the quantification of the inorganic phosphate (Pi) released from ATP hydrolysis by an enzyme. Briefly, the molecular chaperones were prepared in ATPase assay buffer (100 mM Tris-HCl, 7.5, 2 mM MgCl2, 50 mM KCl, 0.5 mM DTT) and incubated with ATP (0–2 mM) for 1 h at 37 °C. […] The samples containing Pi hydrolysed from ATP were incubated with the PiColorLock™ solution, which is a malachite green dye solution that in the presence of Pi changes absorbance due to generation of molybdate-phosphate complexes. The absorbance was measured at 595 nm using a Powerwave 96-well plate reader (BioTek Instruments, Inc., Winooski, VT, USA), and absorbance values were converted to phosphate concentrations using a standard curve of absorbance vs. phosphate concentration based on a set of Pi standards provided by the supplier assayed along with the samples. All samples were corrected for spontaneous breakdown of ATP observed in a control experiment in the absence of protein. The trypanosomal and human Hsp70s were used at 0.8 μM, and the J-proteins were used at 0.4 μM. An initial screen of the modulatory effects of the compounds on the ATPase activity of the Hsp70s was conducted using 300 μM of the compounds. Compounds identified to have a modulatory effect on the basal and J-protein-stimulated ATPase activity of Hsp70 were used at varying concentrations. The modulatory effect of the selected compounds on the basal and J-protein stimulated ATPase activity of the T. brucei Hsp70s was represented as fold change with the basal and J-protein stimulated ATPase activity of the Hsp70s taken as 1 respectively. These experiments were conducted on three independently purified batches of proteins, but due to limited availability of the selected compounds, each assay was conducted in duplicate on each batch of protein. In control reactions to evaluate the effect of DMSO on basal and J-protein stimulated ATPase activity of the Hsp70s, the solvent was added to a final concentration of 1% (v/v) in the assay. The assays were performed in duplicate on three independently purified batches of proteins."}, "[2]": {"biological_target": "T1, TbHsp70 (Trypanosoma brucei brucei, UniProt P11145)", "T1 construct": "His-tag; made in house; host or cells: Escherichia coli", "T1 sequence (P11145 whole entry)": "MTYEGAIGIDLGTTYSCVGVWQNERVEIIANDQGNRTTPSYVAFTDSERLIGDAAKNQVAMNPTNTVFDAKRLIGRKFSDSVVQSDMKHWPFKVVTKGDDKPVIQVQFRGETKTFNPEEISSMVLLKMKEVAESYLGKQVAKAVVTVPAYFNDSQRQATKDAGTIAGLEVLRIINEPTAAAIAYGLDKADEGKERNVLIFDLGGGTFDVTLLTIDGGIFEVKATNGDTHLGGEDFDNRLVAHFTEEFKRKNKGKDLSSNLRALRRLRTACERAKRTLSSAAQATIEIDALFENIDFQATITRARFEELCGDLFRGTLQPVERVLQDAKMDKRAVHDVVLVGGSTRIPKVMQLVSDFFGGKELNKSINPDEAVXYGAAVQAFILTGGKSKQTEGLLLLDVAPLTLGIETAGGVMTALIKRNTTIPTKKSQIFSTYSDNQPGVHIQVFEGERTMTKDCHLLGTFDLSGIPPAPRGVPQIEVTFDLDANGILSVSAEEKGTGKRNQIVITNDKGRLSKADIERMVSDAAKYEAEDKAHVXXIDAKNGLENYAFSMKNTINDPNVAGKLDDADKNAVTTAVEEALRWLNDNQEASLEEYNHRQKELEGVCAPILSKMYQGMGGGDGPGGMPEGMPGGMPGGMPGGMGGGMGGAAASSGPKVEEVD", "assay": "Basal ATPase activity assay, TbHsp70", "format": "biochemical", "method": "(§2) The determination of the ATPase activity of the Hsp70 proteins was performed using the high throughput colorimetric ATPase assay kit (Innova Biosciences, Cambridge, UK). This method enables the quantification of the inorganic phosphate (Pi) released from ATP hydrolysis by an enzyme. Briefly, the molecular chaperones were prepared in ATPase assay buffer (100 mM Tris-HCl, 7.5, 2 mM MgCl2, 50 mM KCl, 0.5 mM DTT) and incubated with ATP (0–2 mM) for 1 h at 37 °C. […] The samples containing Pi hydrolysed from ATP were incubated with the PiColorLock™ solution, which is a malachite green dye solution that in the presence of Pi changes absorbance due to generation of molybdate-phosphate complexes. The absorbance was measured at 595 nm using a Powerwave 96-well plate reader (BioTek Instruments, Inc., Winooski, VT, USA), and absorbance values were converted to phosphate concentrations using a standard curve of absorbance vs. phosphate concentration based on a set of Pi standards provided by the supplier assayed along with the samples. All samples were corrected for spontaneous breakdown of ATP observed in a control experiment in the absence of protein. The trypanosomal and human Hsp70s were used at 0.8 μM, and the J-proteins were used at 0.4 μM. An initial screen of the modulatory effects of the compounds on the ATPase activity of the Hsp70s was conducted using 300 μM of the compounds. […]"}, "[3]": {"biological_target": "T2, TbHsp70 / Tbj2 (Trypanosoma brucei brucei, UniProt P11145)", "T2 construct": "His-tag; made in house; host or cells: Escherichia coli (Tbj2: E. coli BL21 (DE3))", "T2 sequence (P11145 whole entry)": "as above", "assay": "Tbj2-stimulated ATPase activity assay, TbHsp70", "format": "biochemical", "details": "TbHsp70, 150 μM, Figure 5A", "method": "as §1"}, "[4]": {"test_system": "TbHsp70.4", "assay": "Basal ATPase activity assay, TbHsp70.4", "format": "biochemical, Trypanosoma brucei", "details": "TbHsp70.4, 1 μM", "method": "as §2"}, "[5]": {"test_system": "bloodstream form T. b. brucei parasites", "assay": "Resazurin-based anti-trypanosomal assay on bloodstream form T. b. brucei parasites", "format": "cell-based, Trypanosoma brucei brucei", "details": "Trypanosoma brucei", "method": "Bloodstream form T. b. brucei Lister 927 variant 221 strain parasites were cultured in filter sterilized complete Iscoves Modified Dulbeccos Media (IMDM) based HM1-9 medium (IMDM base powder, […] sodium bicarbonate, 1 mM hypoxanthine, 1 mM sodium pyruvate, 0.16 mM thymidine, 0.05 mM bathocuprone sulphate acid, 10% (v/v) heat inactivated foetal bovine serum, 1.5 mM L-cysteine, 0.2 mM β-mercaptoethanol, pH 7.5) in a humidified chamber at 37 °C with an atmosphere of 5% CO2. Parasite growth was monitored using a Neubauer haemocytometer to count the cell number, after which cells were diluted, according to their density, in the described pre-warmed media.\nAll compounds of interest were resuspended to stocks of 30 mM in DMSO and stored at −80 °C prior to use in in vitro experiments. For assessment of anti-trypanosomal activity, compounds were added to in vitro cultures of bloodstream form T. b. brucei parasites (1 × 10^5 cells/mL) in 96-well plates at a fixed concentration of 20 μM. After an incubation period of 48 h, the number of parasites surviving drug exposure were determined using a resazurin-based cytotoxicity assay. Resazurin is an oxidation–reduction sensitive dye that is reduced by living cells to resorufin. Resorufin is a fluorophore (Excitation560/Emission590) and thus was quantified in a multi-well fluorescence plate reader. Results are expressed as % parasite viability—the resorufin fluorescence in small molecule-treated wells relative to untreated controls. Assessment of each small molecule was conducted in duplicate, with error bars representing standard deviation (SD). […] The compounds were added to in vitro cultures of bloodstream form T. b. brucei parasites (1 × 10^5 cells/mL) in 96-well plates in a 3-fold dilution series with 100 μM as the highest concentration. After an incubation period of 48 h, the number of parasites surviving drug exposure were determined as previously mentioned. The % parasite viability was determined as previously mentioned. The IC50 (the concentration of compound required to decrease cell viability of T. b. brucei parasites by 50% compared to those grown in the absence of the compound) values for each of the compounds were determined from a dose–response curve by non-linear regression generated using GraphPad Prism® (v. 7.0; San Diego, CA, USA) software. For comparative purposes, pentamidine at a fixed concentration of 1 μM was employed as a drug standard."}, "[6]": {"test_system": "HeLa (human cervix adenocarcinoma) cells", "assay": "Resazurin-based cytotoxicity assay on a mammalian cell line", "details": "20 μM, Figure S2", "method": "(§3) HeLa cells were grown and maintained in a culture medium comprised of Dulbecco’s Modified Eagle’s Medium (DMEM) with 5 mM L-glutamine (Lonza, Basel, Switzerland), supplemented with 10% (v/v) heat inactivated foetal bovine serum and antibiotics (penicillin/streptomycin/fungizone-PSF) in a humidified chamber at 37 °C with an atmosphere of 5% CO2. To carry out passaging of cells, cultures were treated with 1% trypsin (w/v) to lift cells, which were then washed in 1 × phosphate buffered saline (PBS) before being re-seeded into culture flasks. For assessment of the cytotoxic effects, the small molecules were added to HeLa cells at a fixed concentration of 20 μM. After an incubation period of 24 h, the number of cells surviving drug exposure were determined using a resazurin-based cytotoxicity assay. The resazurin-based cytotoxicity assay was conducted as previously mentioned. Results were expressed as % cell—the resorufin fluorescence in small molecule-treated wells relative to untreated controls. Assessment of each small molecule was conducted in duplicate, with error bars representing standard deviation (SD)."}, "[7]": {"assay": "Resazurin-based cytotoxicity assay on a mammalian cell line", "set-up": "species or system human", "details": "human; HeLa cells, 10 μM", "method": "as §3"}, "[8]": {"test_system": "plasmodial Hsp70s", "set-up": "method as in PMID 24854538", "details": "cited from earlier work"}, "[9]": {"test_system": "P. falciparum", "set-up": "method as in PMID 21426241", "details": "read-out: IC50 against P. falciparum; cited from earlier work"}, "[10]": {"test_system": "human Hsp70", "set-up": "method as in PMID 24854538", "details": "cited from earlier work"}, "[11]": {"test_system": "PfHsp70-1", "set-up": "method as in PMID 21426241", "details": "cited from earlier work"}, "[12]": {"test_system": "c-Met kinase", "set-up": "method as in PMID 23081922", "details": "10 μM; cited from earlier work"}, "[13]": {"biological_target": "phosphodiesterase-4D", "set-up": "method as in PMID 24473168", "details": "read-out: IC50 against phosphodiesterase-4D; cited from earlier work"}, "[14]": {"details": "T. b. brucei parasites, stated as bound, read-out: IC50 values"}, "[15]": {"details": "Table 1, T. b. brucei parasites cultured in vitro, 48 h, dose-response, read-out: IC50/μM"}, "[16]": {"details": "Table S1, 48 select compounds, T. b. brucei, 48 h, read-out: IC50/"}}, "note": "Read-outs that look alike come from different tables or passages of the source.", "data": [{"smiles": "CC(C)=CCC/C(C)=C/CCC(C)=CCn1cnc2c(cnn2CC=C(C)CC/C=C(\\C)CCC=C(C)C)c1=O", "note": "[Compound 47, 1,5-Bis((6E)-3,7,11-trimethyldodeca-2,6,10-trien-1-yl)-1,5-dihydro-4H-pyrazolo[3,4-d]pyrimidin-4-one]", "values": [{"measurement": "effect of order of addition (compound vs Tbj2) on inhibition of J-stimulated ATPase activity", "setting": "[1]", "value": "no significant difference"}, {"measurement": "inhibition at 1 µM", "setting": "[2]; TbHsp70, 1 μM", "value": 44, "unit": "%"}, {"measurement": "effect of order of addition (compound vs Tbj2) on inhibition of J-stimulated ATPase activity", "setting": "[3]", "value": "no significant difference"}, {"measurement": "inhibition of basal ATPase activity", "setting": "[4]", "value": 66, "unit": "%"}, {"measurement": "IC50", "setting": "[5]; [14]", "value": "< 7", "unit": "µM"}, {"measurement": "IC50", "setting": "[5]; [15]", "value": 1.2, "unit": "µM"}, {"measurement": "IC50", "setting": "[5]; [16]", "value": 1.23, "unit": "µM"}]}, {"smiles": "CC(C)=CCC/C(C)=C/Cn1ccc(=NC=O)n(C/C=C(\\C)CCC=C(C)C)c1=O", "note": "[Compound 60, N-(-1,3-Bis((E)-3,7-dimethylocta-2,6-dien-1-yl)-2-oxo-2,3-dihydropyrimidin-4(1H)-ylidene)formamide]", "values": [{"measurement": "inhibition at 300 µM", "setting": "[2]; TbHsp70, 300 μM, Figure S6", "value": 39, "unit": "%"}, {"measurement": "IC50", "setting": "[5]; [14]", "value": "< 7", "unit": "µM"}, {"measurement": "IC50", "setting": "[5]; [15]", "value": 4.9, "unit": "µM"}, {"measurement": "IC50", "setting": "[5]; [16]", "value": 4.89, "unit": "µM"}]}, {"smiles": "CC(C)=CCC/C(C)=C/CCC(C)=CCn1ccc(=NC=O)n(CC=C(C)CC/C=C(\\C)CCC=C(C)C)c1=O", "note": "[Compound 62, N-(-2-Oxo-1,3-bis((6E)-3,7,11-trimethyldodeca-2,6,10-trien-1-yl)-2,3-dihydropyrimidin-4(1H)-ylidene)formamide]", "values": [{"measurement": "toxicity to HeLa cells", "setting": "[6]", "value": "toxic"}]}, {"smiles": "CC[C@H]1CN2CCc3cc(OC)c(OC)cc3[C@@H]2C[C@@H]1C[C@H]1NCCc2cc(OC)c(OC)cc21", "note": "[Emetine, reference compound]", "values": [{"measurement": "viability at 24 h, 10 µM", "setting": "[7]", "value": 6.03, "unit": "%"}]}, {"smiles": "C/C(=C/C(=O)CC(C)C)CCC/C(C)=C/CC/C(C)=C/Cn1cnc2c1c(=O)ncn2C", "note": "[malonganenone A]", "values": [{"measurement": "effect on steady-state and J-protein stimulated ATPase activity", "setting": "[8]", "value": "inhibited"}, {"measurement": "IC50", "setting": "[9]", "value": 0.81, "unit": "µM"}, {"measurement": "effect on steady-state and J-protein stimulated ATPase activity", "setting": "[10]", "value": "not that of human Hsp70"}]}, {"smiles": "CNC(=O)c1c(N(C)C=O)ncn1C/C=C(\\C)CC/C=C(\\C)CCC/C(C)=C\\C(=O)CC(C)C", "note": "[malonganenone B]", "values": [{"measurement": "activity against PfHsp70-1", "setting": "[11]", "value": "dose-dependent"}]}, {"smiles": "C/C(=C/C(=O)CC(C)C)CCC/C(C)=C/CC/C(C)=C/CNC=O", "note": "[malonganenone C]", "values": [{"measurement": "IC50", "setting": "[9]", "value": 5.2, "unit": "µM"}]}, {"smiles": "C/C(=C\\CC/C(C)=C/Cn1cnc2c1c(=O)ncn2C)CC/C=C(\\C)CC(=O)CC(C)C", "note": "[malonganenone D]", "values": [{"measurement": "reduction of c-Met kinase activity", "setting": "[12]", "value": 2, "unit": "fold"}]}, {"smiles": "CC(C)=CC(=O)C/C(C)=C/CC/C(C)=C/CC/C(C)=C/Cn1cnc2c1c(=O)ncn2C", "note": "[malonganenone L]", "values": [{"measurement": "IC50", "setting": "[13]", "value": 8.5, "unit": "µM"}]}, {"smiles": "CNC(=O)c1c(N(C)C=O)ncn1C/C=C(\\C)CC/C=C(\\C)CCC/C(C)=C\\C(=O)C=C(C)C", "note": "[malonganenone Q]", "values": [{"measurement": "IC50", "setting": "[13]", "value": 20.3, "unit": "µM"}]}]}
